In the NIST ThermoML archive (doi:10.1021/acs.jced.5b00798):
Numbers after ± are expanded uncertainties.

Assays:
[1] = xn = mol fraction of the nth substance listed; conditions: for surface tension liquid-gas: surface light scattering; for kinematic viscosity: 101 kPa, Liquid, Surface laser light scattering (SLLS)
[2] = for surface tension liquid-gas: surface light scattering; for kinematic viscosity: 101.33 kPa, Liquid, Surface laser light scattering (SLLS)

C=C(F)C(F)(F)F [2,3,3,3-tetrafluoro-1-propene] + FCF
[1]
Conditions | kinematic viscosity [m2/s] | surface tension liquid-gas [mN/m]
293.15 K, x2 = 0.7945 | 1.28e-07 ± 8.7e-09 | 7.04 ± 0.11
293.16 K, x2 = 0.5193 | 1.31e-07 ± 8.8e-09 | 6.55 ± 0.1
293.21 K, x2 = 0.6988 | 1.28e-07 ± 8.7e-09 | 6.9 ± 0.1
303.14 K, x2 = 0.7945 | 1.18e-07 ± 8.7e-09 | 5.57 ± 0.08
303.16 K, x2 = 0.5193 | 1.2e-07 ± 8.7e-09 | 5.29 ± 0.08
303.2 K, x2 = 0.6988 | 1.19e-07 ± 8.7e-09 | 5.49 ± 0.08
313.14 K, x2 = 0.5193 | 1.09e-07 ± 8.6e-09 | 4.1 ± 0.06
313.21 K, x2 = 0.6988 | 1.09e-07 ± 8.6e-09 | 4.1 ± 0.06
313.26 K, x2 = 0.7945 | 1.08e-07 ± 8.6e-09 | 4.14 ± 0.06
323.17 K, x2 = 0.5193 | 1.01e-07 ± 8.5e-09 | 2.96 ± 0.04
323.19 K, x2 = 0.6988 | 9.91e-08 ± 8.5e-09 | 2.82 ± 0.04
323.2 K, x2 = 0.7945 | 9.82e-08 ± 8.5e-09 | 2.83 ± 0.04
333.14 K, x2 = 0.5193 | 9.15e-08 ± 8.5e-09 | 1.91 ± 0.03
333.21 K, x2 = 0.6988 | 8.98e-08 ± 8.4e-09 | 1.66 ± 0.03
333.21 K, x2 = 0.7945 | 8.85e-08 ± 8.4e-09 | 1.62 ± 0.03
343.14 K, x2 = 0.5193 | 8.18e-08 ± 9.1e-09 | 0.97 ± 0.02
343.16 K, x2 = 0.6988 | 7.93e-08 ± 9e-09 | 0.66 ± 0.01
343.18 K, x2 = 0.7945 | 7.71e-08 ± 8.9e-09 | 0.59 ± 0.01

FCF [difluoromethane]
[2]
Conditions | kinematic viscosity [m2/s] | surface tension liquid-gas [mN/m]
293.15 K | 1.29e-07 ± 8.7e-09 | 7.4 ± 0.11
303.15 K | 1.17e-07 ± 8.7e-09 | 5.94 ± 0.09
313.07 K | 1.08e-07 ± 8.6e-09 | 4.35 ± 0.07
323.15 K | 9.98e-08 ± 8.5e-09 | 2.96 ± 0.05
333.14 K | 9.3e-08 ± 8.5e-09 | 1.67 ± 0.03
343.16 K | 7.95e-08 ± 8.4e-09 | 0.57 ± 0.01
348.18 K | 7.5e-08 ± 8.8e-09 | 0.14 ± 0.01

F/C=C/C(F)(F)F [trans-1,3,3,3-tetrafluoropropene] + FCF
[1]
Conditions | kinematic viscosity, x2 = 0.2985 [m2/s] | kinematic viscosity, x2 = 0.5697 [m2/s] | kinematic viscosity, x2 = 0.7501 [m2/s] | surface tension liquid-gas, x2 = 0.2985 [mN/m] | surface tension liquid-gas, x2 = 0.5697 [mN/m] | surface tension liquid-gas, x2 = 0.7501 [mN/m]
293.14 K | – | 1.47e-07 ± 8.9e-09 | 1.37e-07 ± 8.8e-09 | – | – | –
293.16 K | 1.61e-07 ± 9e-09 | – | – | 8.46 ± 0.13 | 8.02 ± 0.12 | 7.74 ± 0.12
303.16 K | – | 1.34e-07 ± 8.8e-09 | 1.28e-07 ± 8.7e-09 | – | – | –
303.17 K | 1.43e-07 ± 8.9e-09 | – | – | 7.17 ± 0.11 | 6.63 ± 0.1 | 6.3 ± 0.09
313.12 K | – | 1.22e-07 ± 8.7e-09 | 1.14e-07 ± 8.6e-09 | – | – | –
313.13 K | 1.32e-07 ± 8.8e-09 | – | – | 5.93 ± 0.09 | 5.34 ± 0.08 | 4.91 ± 0.07
323.13 K | 1.23e-07 ± 8.7e-09 | – | – | 4.75 ± 0.07 | 4.15 ± 0.06 | 3.62 ± 0.05
323.14 K | – | 1.13e-07 ± 8.6e-09 | 1.04e-07 ± 8.6e-09 | – | – | –
333.14 K | – | 1.03e-07 ± 8.5e-09 | 9.75e-08 ± 8.5e-09 | – | – | –
333.16 K | 1.11e-07 ± 8.6e-09 | – | – | 3.62 ± 0.05 | 2.89 ± 0.04 | 2.41 ± 0.04
343.11 K | – | 9.31e-08 ± 9.5e-09 | 8.96e-08 ± 9.4e-09 | – | – | –
343.12 K | 1.02e-07 ± 9.9e-09 | – | – | 2.54 ± 0.04 | 1.83 ± 0.03 | 1.32 ± 0.02
348.17 K | 9.63e-08 ± 9.7e-09 | – | – | 2.06 ± 0.03 | 1.34 ± 0.02 | 0.83 ± 0.01
348.19 K | – | 8.74e-08 ± 9.3e-09 | 8.58e-08 ± 9.2e-09 | – | – | –
